Converted amounts (≈) assume the structure as drawn. Like-named read-outs stand apart in the source and are kept apart here.
How the values were obtained:
Bacillus subtilis = assay: MIC, Bacillus subtilis (Bs), nutrient agar; assay type: cell-based, Bacillus subtilis ATCC 8473; details: 30° C., 48 hours, read-out: Minimum Inhibitory Concentration, Bs
Protocol: (§1) The minimum inhibitory concentration (MIC) for the compounds is determined for 9 bacteria, using nutrient agar, and 7 yeast and fungi, using malt yeast agar. A one percent solution of the test compound is prepared in a mixture of acetone and water. Nutrient agar is prepared at pH 6.8, representing a neutral medium, and at pH 8.2, representing an alkaline medium. The nutrient agars are prepared by adding 23 g of nutrient agar to one-liter of deionized water. In addition, the alkaline medium is prepared by adjusting a 0.04M solution of N-[tris-(hydroxymethyl)methyl]-glycine buffered deionized water with concentrated sodium hydroxide to a pH of […]. Malt yeast agar is prepared by adding 3 g yeast extract and 45 g malt agar per liter of dionized water. The specific agar is dispensed in 30 ml aliquots into 25×200 mm test tubes, capped and autoclaved for 15 minutes at 115° C. The test tubes containing the agar are cooled in a water bath until the temperature of the agar is 48 ° C. […]
(§2) The inoculated petri plates are incubated at 30° C. for 48 hours and then read to determine if the test compound which is incorporated into the agar prevented growth of the respective bacteria. […]

Enterobacter aerogenes = assay: MIC, Enterobacter aerogenes (Ea), nutrient agar; assay type: cell-based, Enterobacter aerogenes ATCC 13048; details: Klebsiella aerogenes, 30° C., 48 hours, read-out: Minimum Inhibitory Concentration, Ea
Protocol: as §1, §2

Escherichia coli = assay: MIC, Escherichia coli (Ec), nutrient agar; assay type: cell-based, Escherichia coli ATCC 11229; details: 30° C., 48 hours, read-out: Minimum Inhibitory Concentration, Ec
Protocol: as §1, §2

Klebsiella pneumoniae = assay: MIC, Klebsiella pneumoniae (Kp), nutrient agar; assay type: cell-based, Klebsiella pneumoniae ATCC 8308; details: 30° C., 48 hours, read-out: Minimum Inhibitory Concentration, Kp
Protocol: as §1, §2

Proteus vulgaris = assay: MIC, Proteus vulgaris (Pv), nutrient agar; assay type: cell-based, Proteus vulgaris ATCC 881; details: 30° C., 48 hours, read-out: Minimum Inhibitory Concentration, Pv
Protocol: as §1, §2

[1] = system: Pseudomonas aeruginosa (PRD-10); assay: MIC, Pseudomonas aeruginosa (PRD-10), nutrient agar; assay type: cell-based, Pseudomonas aeruginosa ATCC 15442; details: 30° C., 48 hours, read-out: Minimum Inhibitory Concentration, PRD
Protocol: as §1, §2

Pseudomonas aeruginosa = assay: MIC, Pseudomonas aeruginosa (Pa), nutrient agar; assay type: cell-based, Pseudomonas aeruginosa ATCC 10145; details: 30° C., 48 hours, read-out: Minimum Inhibitory Concentration, Pa
Protocol: as §1, §2

Salmonella choleraesuis = assay: MIC, Salmonella choleraesuis (Sc), nutrient agar; assay type: cell-based, Salmonella choleraesuis ATCC 10708; details: Salmonella enterica, 30° C., 48 hours, read-out: Minimum Inhibitory Concentration, Sc
Protocol: as §1, §2

Staphylococcus aureus = assay: MIC, Staphylococcus aureus (Sa), nutrient agar; assay type: cell-based, Staphylococcus aureus ATCC 6538; details: 30° C., 48 hours, read-out: Minimum Inhibitory Concentration, Sa
Protocol: as §1, §2

Aspergillus niger = assay: MIC, Aspergillus niger (An), malt yeast agar; assay type: cell-based, Aspergillus niger ATCC 16404; details: 30° C., 72 hours (fungi), read-out: Minimum Inhibitory Concentration, An
Protocol: as §1
(§3) The inoculation with the yeast and fungi is accomplished as follows. […] The petri plates are incubated at 30° C. and read after 48 hours for yeast and 72 hours for fungi. […]

Candida albicans = assay: MIC, Candida albicans (Ca), malt yeast agar; assay type: cell-based, Candida albicans ATCC 10231; details: 30° C., 48 hours (yeast), read-out: Minimum Inhibitory Concentration, Ca
Protocol: as §1, §3

Penicillium chrysogenum = assay: MIC, Penicillium chrysogenum (Pc), malt yeast agar; assay type: cell-based, Penicillium chrysogenum ATCC 9480; details: 30° C., 72 hours (fungi), read-out: Minimum Inhibitory Concentration, Pc
Protocol: as §1, §3

Saccharomyces cerevisiae = assay: MIC, Saccharomyces cerevisiae (Sc), malt yeast agar; assay type: cell-based, Saccharomyces cerevisiae ATCC 4105; details: 30° C., 48 hours (yeast), read-out: Minimum Inhibitory Concentration, Sc
Protocol: as §1, §3

Trichoderma viride = assay: MIC, Trichoderma viride (Tv), malt yeast agar; assay type: cell-based, Trichoderma viride ATCC 8678; details: 30° C., 72 hours (fungi), read-out: Minimum Inhibitory Concentration, Tv
Protocol: as §1, §3

Aureobasidium pullulan = assay: MIC, Aureobasidium pullulan (Ap), malt yeast agar; assay type: cell-based, Aureobasidium pullulan ATCC 16622; details: 30° C., read after 48 hours for yeast and 72 hours for fungi, read-out: Minimum Inhibitory Concentration, Ap
Protocol: as §1, §3

Fusarium oxysporum = assay: MIC, Fusarium oxysporum (Fo), malt yeast agar; assay type: cell-based, Fusarium oxysporum ATCC 48112; details: 30° C., 72 hours (fungi), read-out: Minimum Inhibitory Concentration, Fo
Protocol: as §1, §3

N#CSC=C(Cl)C#N [3-Thiocyano-2-chloro-2-propenenitrile, 3-Thiocyano-2-Chloro-2-Propenenitrile]
MIC (Bacillus subtilis; pH 6.8, nutrient agar): 25 µg/mL (≈ 173 µM) | MIC (Bacillus subtilis; pH 8.2, nutrient agar): 500 µg/mL (≈ 3460 µM) | MIC (Enterobacter aerogenes; pH 6.8, nutrient agar): 250 µg/mL (≈ 1730 µM) | MIC (Enterobacter aerogenes; pH 8.2, nutrient agar): > 500 µg/mL | MIC (Escherichia coli; pH 6.8, nutrient agar): 100 µg/mL (≈ 692 µM) | MIC (Escherichia coli; pH 8.2, nutrient agar): > 500 µg/mL | MIC (Klebsiella pneumoniae; pH 6.8, nutrient agar): 100 µg/mL (≈ 692 µM) | MIC (Klebsiella pneumoniae; pH 8.2, nutrient agar): 500 µg/mL (≈ 3460 µM) | MIC (Proteus vulgaris; pH 6.8, nutrient agar): 50 µg/mL (≈ 346 µM) | MIC (Proteus vulgaris; pH 8.2, nutrient agar): > 500 µg/mL | MIC ([1]; pH 6.8, nutrient agar): 250 µg/mL (≈ 1730 µM) | MIC ([1]; pH 8.2, nutrient agar): > 500 µg/mL | MIC (Pseudomonas aeruginosa; pH 6.8, nutrient agar): 250 µg/mL (≈ 1730 µM) | MIC (Pseudomonas aeruginosa; pH 8.2, nutrient agar): 500 µg/mL (≈ 3460 µM) | MIC (Salmonella choleraesuis; pH 6.8, nutrient agar): 100 µg/mL (≈ 692 µM) | MIC (Salmonella choleraesuis; pH 8.2, nutrient agar): > 500 µg/mL | MIC (Staphylococcus aureus; pH 6.8, nutrient agar): 50 µg/mL (≈ 346 µM) | MIC (Staphylococcus aureus; pH 8.2, nutrient agar): 500 µg/mL (≈ 3460 µM) | MIC (Aspergillus niger): 2.5 µg/mL (≈ 17.3 µM) | MIC (Candida albicans): 2.5 µg/mL (≈ 17.3 µM) | MIC (Penicillium chrysogenum): 2.5 µg/mL (≈ 17.3 µM) | MIC (Saccharomyces cerevisiae): 2.5 µg/mL (≈ 17.3 µM) | MIC (Trichoderma viride): 5 µg/mL (≈ 34.6 µM) | MIC (Aureobasidium pullulan): 2.5 µg/mL (≈ 17.3 µM) | MIC (Fusarium oxysporum): 2.5 µg/mL (≈ 17.3 µM)
